Numbers after ± are expanded uncertainties.
Tests used:
[1] = for Normal melting temperature: Crystal, DTA; for mass density: 298.15 K, 101.33 kPa, Liquid, Vibrating tube method
[2] = Molar enthalpy of transition or fusion; conditions: Crystal; DSC

Normal melting temperature [1] [°C]	Molar enthalpy of transition or fusion [2] [kcal/mol]	mass density [1] [kg/m3]	Compound
271.4 ± 0.4	7.23 ± 0.158	–	Cn1c(=O)c2[nH]cnc2n(C)c1=O [3,7-dihydro-1,3-dimethyl-1H-purine-2,6-dione]
162.7 ± 0.4	7.8 ± 0.17	–	Cn1c(=O)c2c(ncn2CCO)n(C)c1=O [7-(2-hydroxyethyl)-1,3-dimethylxanthine]
–	–	785.12 ± 1	CCO [ethanol]
–	–	822.99 ± 1	CCCCCCCCO [octan-1-ol]

— the NIST ThermoML archive (doi:10.1016/j.jct.2014.05.005)
